From ChEMBL document CHEMBL1201862, “PubChem BioAssay data set” (2004)
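Assay format: 96-well plates, 48-hour exposure. The concentration for 50% growth inhibition is given as GI50.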 Calls of active or inactive are those of the source. Cut-off read from the data, not from the text of the source: active = GI50 up to about 1.1 µM and inactive = higher.

Assays:
Assay in all cases: NCI tumour cell line growth inhibition, 48 h
NCI-H460 = system: NCI-H460
OVCAR-8 = system: OVCAR-8
SK-MEL-28 = system: SK-MEL-28
MOLT-4 = system: MOLT-4
UO-31 = system: UO-31
SW-620 = system: SW-620
A549 = system: A549
M14 = system: M14
UACC-257 = system: UACC-257
KM12 = system: KM12
RXF 393 = system: RXF 393
OVCAR-4 = system: OVCAR-4
SNB-19 = system: SNB-19
SF-539 = system: SF-539
SF-268 = system: SF-268
SK-MEL-2 = system: SK-MEL-2
NCI-H522 = system: NCI-H522
HCT-116 = system: HCT-116
HOP-92 = system: HOP-92
SR = system: SR

Row | Compound | GI50 (NCI-H460) | GI50 (OVCAR-8) | GI50 (SK-MEL-28) | GI50 (MOLT-4) | GI50 (UO-31) | GI50 (SW-620) | GI50 (A549) | GI50 (M14) | GI50 (UACC-257) | GI50 (KM12) | GI50 (RXF 393) | GI50 (OVCAR-4) | GI50 (SNB-19) | GI50 (SF-539) | GI50 (SF-268) | GI50 (SK-MEL-2) | GI50 (NCI-H522) | GI50 (HCT-116) | GI50 (HOP-92) | GI50 (SR)
1 | COC(=O)c1s/c(=N\C(=S)N(C)C)n(-c2ccccc2)c1C(=O)OC | > 100 µM (inactive) | > 100 µM (inactive) | > 100 µM (inactive) | 66.8 µM (inactive) | > 100 µM (inactive) | > 100 µM (inactive) | > 100 µM (inactive) | > 100 µM (inactive) | > 100 µM (inactive) | > 100 µM (inactive) | > 100 µM (inactive) | 94 µM (inactive) | > 100 µM (inactive) | > 100 µM (inactive) | > 100 µM (inactive) | > 100 µM (inactive) | > 100 µM (inactive) | > 100 µM (inactive) | > 100 µM (inactive) | –
2 | S=C(N/N=C/c1ccccn1)N1CCCCCC1 | < 0.01 µM (active) | < 0.01 µM (active) | 0.215 µM (active) | < 0.01 µM (active) | 0.0288 µM (active) | < 0.01 µM (active) | < 0.0142 µM (active) | < 0.01 µM (active) | < 0.01 µM (active) | < 0.01 µM (active) | – | – | 0.416 µM (active) | < 0.0288 µM (active) | < 0.0121 µM (active) | 0.0659 µM (active) | < 0.0267 µM (active) | < 0.01 µM (active) | 0.0832 µM (active) | < 0.01 µM (active)
3 | O=C1OC(=O)c2c1cc1cc3c(cc1c2-c1ccc2c(c1)OCO2)OCO3 | > 100 µM (inactive) | > 100 µM (inactive) | > 100 µM (inactive) | > 100 µM (inactive) | > 100 µM (inactive) | > 100 µM (inactive) | > 100 µM (inactive) | > 100 µM (inactive) | > 100 µM (inactive) | > 100 µM (inactive) | > 100 µM (inactive) | > 100 µM (inactive) | > 100 µM (inactive) | > 100 µM (inactive) | > 100 µM (inactive) | > 100 µM (inactive) | > 100 µM (inactive) | > 100 µM (inactive) | > 100 µM (inactive) | –
4 | COC(=O)c1cc2c3c(cc(N(C)C)c2[nH]1)N(C(=O)c1cc2cc(OC)c(OC)c(OC)c2[nH]1)CC3CCl (stereo not given) | 0.00252 µM (active) | – | 0.00641 µM (active) | < 0.0025 µM (active) | 0.00316 µM (active) | < 0.0025 µM (active) | 0.00292 µM (active) | 0.00294 µM (active) | 0.00476 µM (active) | 0.00267 µM (active) | < 0.0025 µM (active) | 0.00745 µM (active) | 0.00775 µM (active) | 0.00653 µM (active) | 0.00374 µM (active) | 0.00762 µM (active) | 0.00279 µM (active) | < 0.0025 µM (active) | 0.0041 µM (active) | –
5 | CS(=O)(=O)N/N=C/CN1C(=O)c2ccccc2C1=O | > 100 µM (inactive) | > 100 µM (inactive) | > 100 µM (inactive) | > 100 µM (inactive) | > 100 µM (inactive) | > 100 µM (inactive) | > 100 µM (inactive) | > 100 µM (inactive) | > 100 µM (inactive) | > 100 µM (inactive) | – | > 100 µM (inactive) | > 100 µM (inactive) | > 100 µM (inactive) | > 100 µM (inactive) | > 100 µM (inactive) | > 100 µM (inactive) | > 100 µM (inactive) | – | > 100 µM (inactive)
6 | CCOc1cc(C=O)ccc1O [ETHYL VANILLIN] | > 100 µM (inactive) | > 100 µM (inactive) | > 100 µM (inactive) | > 100 µM (inactive) | > 100 µM (inactive) | > 100 µM (inactive) | > 100 µM (inactive) | > 100 µM (inactive) | > 100 µM (inactive) | > 100 µM (inactive) | – | > 100 µM (inactive) | > 100 µM (inactive) | > 100 µM (inactive) | > 100 µM (inactive) | > 100 µM (inactive) | > 100 µM (inactive) | > 100 µM (inactive) | > 100 µM (inactive) | 76 µM (inactive)
7 | CN(C)CN1C(=O)/C(=N\n2c(S)nnc2-c2ccncc2)c2ccccc21 | 38.3 µM (inactive) | 23.7 µM (inactive) | 57.1 µM (inactive) | 12.1 µM (inactive) | 29.5 µM (inactive) | 18.8 µM (inactive) | 55 µM (inactive) | 24.8 µM (inactive) | 15.5 µM (inactive) | 43.7 µM (inactive) | 17 µM (inactive) | 17.1 µM (inactive) | 54.5 µM (inactive) | 23.5 µM (inactive) | 57.5 µM (inactive) | 21.4 µM (inactive) | 16.6 µM (inactive) | 34 µM (inactive) | 76.9 µM (inactive) | –
